Columns and labels:
[1] = system: luciferase-positive Jeko; test: CART19 cytotoxicity in the presence of TP0903; assay type: cell-based
Procedure: FIG. 1 contains a graph showing CART19 cytotoxicity in the presence TP0903. CART19 or untransduced T cells (UTDs) were co-cultured at different effector-to-target ratios (E:T) with luciferase-positive Jeko with increasing doses of TP0903 (TP). At 24 hours, cell killing was assessed by luminescence.
FIGS. 16A-B. A head-to-head comparison of two different combination therapy. UTDs (A) or CART19 (B) were co-cultured at different effector-to-target ratios (E:T) with luciferase-positive CD19^+ cell line in the presence of DMSO, 30 nM TP0903, or 100 nM ibrutinib. Cell killing was assessed by luminescence at 24 hours.
FIG. 22A-C. In vitro experiment for the combination of CART19 and TP0903. A. CART19 were cocultured at different effector-to-target ratio (E:T) with luciferase-positive JeKo-1. At 48 hours, cell killing was assessed by luminescence. […] The means and SEM are shown (**, p<0.005, *, p<0.05, one-way ANOVA analysis). n.s., not statistically significant. B. CART19 degranulation assay and cytokine production in the presence of TP0903. CART19 were cocultured with JeKo-1 for 4 hours in the presence of TP0903 doses of TP0903 (10-65 nM). […] C. Th2/Th1 T cell subtype analysis during CART19 expansion in the presence pf TP0903. CART19 cells were stimulated with lethally irradiated (120 Gy) JeKo-1 cell lines in the presence of increasing doses of TP0903 (10-30 nM). At the day 3, Th1 and Th2 cells were defined using CD4, CCR6, CCR4 and CXCR3 expression. […] The means and SEM are shown (*, p<0.05, one-way ANOVA analysis). n.s., not statistically significant.
JEKO-Luc cells or primary B cells were used for cytotoxicity assay. In brief, targets were incubated at the indicated ratios with effector T cells for 4 or 16 hours. Killing was calculated either by bioluminescence imaging on a Xenogen IVIS-200 Spectrum camera (PerkinElmer, Hopkinton, Mass., USA) or by flow cytometry. For the latter, cells were harvested; Countbright beads and life/dead (Invitrogen) were added prior to analysis. Residual live target cells were CD19+L/D−.
CART19 or UTDs were cocultured at different effector-to-target ratio (E:T) with luciferase-positive Jeko or with primary CLL cells, with increasing dose of TP0903 as indicated on the X axis. At 24 hours, cell killing was assessed by luminescence or by flow cytometry.

[2] = system: JeKo; test: MCL (JeKo) xenograft in NSG mice with re-challenge; assay type: in vivo
Procedure: FIGS. 19A-F. A. Inhibitory receptors expression in naïve T cells after TCR activation with CD3 stimulation in the increasing dose of TP0903. Naïve T cells were incubated with anti CD3/CD28 beads at a 1 to 3 ratio in the presence of TP0903. At day 3, T cells were stained with PD-1, TIM-3, LAG-3, and ICOS. […] Teff cells were isolated by negative selection using Human T Cell Isolation Kit. Tregs were isolated by negative selection using the human CD4^+CD127^lowCD25^+ Treg isolation kit. Teff and Treg were stimulated with anti CD3/CD28 beads and 400 U/ml of IL-2. At day 5, total T cells were evaluated via CountBright quantification. C. CART19 cytokine assay in the presence TP0903. UTDs or CART19 were incubated with Jeko in the presence of TP-0903 at a 1 to 1 ratio. Supernatant was harvested and analyzed by 32-plex Luminex array after 3 days. D. Inhibitory receptors expression in CART19 cells in the presence TP0903. UTDs or CART19 were incubated with Jeko at a 1 to 1 E/T ratio in the presence of TP0903. At day 5, T cells were stained with PD-1 (left), LAG-3 (right), and TIM-3. E. CART19 cytotoxicity in the presence TP0903: CART19 or UTDs were co-cultured at different effector-to-target ratios (E:T) with luciferase-positive Jeko in the presence of increasing doses of TP0903. Cell killing was assessed by luminescence at 24 hours. F. TP0903 enhanced CART cell persistence in vivo. NSG mice were injected with 1.0×10^6 luciferase-positive JeKo on day −7. At day 0, mice were randomized according to tumor burden to receive vehicle, TP0903 20 mg/kg/day, […] CART19, or TP0903 20 mg/kg/day+0.5×10^6 CART19. At day 21, mice were re-challenged with JeKo.
FIG. 25A-E. Impact of the combinatory therapy in vivo. A. Schema for in vivo experiment. B and C. […] D. Reduction of MCP-1, which is known as CRS related cytokine in the presence of TP0903. E. Expansion of circulating CART19 after re-challenging Luciferase positive JeKo-1.
NOD-SCID-γ chain−/− (NSG) originally obtained from Jackson Laboratories were maintained in our laboratory under an IACUC approved breeding protocol. Schemas of the utilized xenograft models are discussed in detail in the relevant figures and the Results section. Cells were injected in 200 μL of phosphate-buffered saline at the indicated concentration into the tail veins of mice. Bioluminescent imaging was performed using a Xenogen IVIS-200 Spectrum camera. Images were acquired and analyzed using Living Image version 4.4 (Caliper LifeSciences, Inc., PerkinElmer).
To investigate the effect of AXL RTK inhibition of CART cells with TP0903 in vivo, MCL xenografts were established through the injection of 1.0×10^6 of JeKo into NSG mice. A week after the injection of JeKo, mice were treated with either vehicle alone, TP0903 (20 mg/kg/day) alone, 0.5×10^6 of CART19 alone, or TP0903 (20 mg/kg/day)+0.5×10^6 of CART19. Three weeks after the treatment, mice were rechallenged with 1.0×10^6 of JeKo.

CN1CCN(Cc2ccc(Nc3ncc(Cl)c(Nc4ccccc4S(=O)(=O)N(C)C)n3)cc2)CC1 [TP0903]
cell killing, head-to-head comparison of combinations ([1]; 30 nM TP0903 + CART19 vs 100 nM ibrutinib + CART19, luciferase-positive CD19+ cell line, 24 hours): more synergistic killing | type of combination effect on cell killing ([1]; CART19 + TP0903, from calculations): synergistic rather than an additive effect | cell killing assessed by luminescence ([1]; CART19 + increasing doses of TP0903, different E:T ratios, luciferase-positive Jeko or primary CLL cells, 24 hours): robust killing at all E:T ratios | cytotoxic effect versus TP0903 dose ([1]; CART19 with luciferase-positive JeKo-1, 48 hours, at a specific E:T ratio): increased cytotoxic effect was significantly correlated to increased TP0903 dose | antitumor activity against JeKo in vitro ([1]; combination of CART19 cells and TP0903, low E:T ratios): synergistic antitumor activity | outcome of JeKo re-challenge ([2]; TP0903 20 mg/kg/day + 0.5×10^6 CART19, re-challenge at three weeks): successfully rejected | CART cell persistence in vivo ([2]; TP0903 20 mg/kg/day + CART19): enhanced | tumor burden ([2]; combination of CART19 and TP0903 vs CART19 monotherapy): superior low tumor burden | circulating CART19 ([2]; combination, after re-challenging Luciferase positive JeKo-1): Expansion | MCP-1 (CRS related cytokine) ([2]; in vivo, in the presence of TP0903): Reduction
